According to PMC12314110, “Evaluation of Potential Effects of CYP3A Inhibition and CYP3A Induction on the Pharmacokinetics of Fruquintinib in Healthy Subjects” (Clinical Pharmacology in Drug Development, 2025):

Tests used:
[1] = parameters: method as in PMID 9925057; conditions: cited from earlier work
[2] = Safety assessments (adverse events) in healthy subjects; assay type: in vivo, human; conditions: Part B, after rifampin alone (Treatment Period 2); back pain, 1/14 subjects, mild (Grade 1), unrelated to study treatment
Protocol: Safety was assessed by evaluation of adverse events (AEs), serious AEs, AEs of special interest, physical examinations, vital signs, single 12‐lead electrocardiograms and cardiac monitoring, and clinical laboratory data. All AEs were coded using the Medical Dictionary for Regulatory Activities Version 23.0, and their severity was graded using the National Cancer Institute Common Terminology Criteria for Adverse Events Version 5.0.

## CO[C@H]1/C=C/O[C@@]2(C)Oc3c(C)c(O)c4c(O)c(c(/C=N/N5CCN(C)CC5)c(O)c4c3C2=O)NC(=O)/C(C)=C\C=C\[C@H](C)[C@H](O)[C@@H](C)[C@@H](O)[C@@H](C)[C@H](OC(C)=O)[C@@H]1C [rifampin, reference compound]
[1]
  reduction of absorption when ingested with food: approximately 30%
[2]
  treatment‐emergent AE incidence: 7.1%
